Values joined by “and” are separate entries in the source; they are usually repeats but may differ in a detail not shown here. Identical values can stand only once.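 Step 1: Grow cells in 96-well plates. Step 2: Expose to compound for 48 hours at 5 concentrations. Step 3: Interpolate endpoints linearly; if unreached, use highest concentration. At the GI50, growth is halved. TGI: concentration producing complete growth inhibition.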
Experiments:
Experiment in all cases: DTP human tumour cell line panel, 48 h
SNB-19 CNS = tested on: SNB-19 CNS
SK-MEL-28 melanoma = tested on: SK-MEL-28 melanoma
ACHN renal = tested on: ACHN renal
A498 renal = tested on: A498 renal
SK-MEL-2 melanoma = tested on: SK-MEL-2 melanoma
RXF 393 renal = tested on: RXF 393 renal
SN12C renal = tested on: SN12C renal
NCI-H226 lung = tested on: NCI-H226 lung
DU-145 prostate = tested on: DU-145 prostate
MCF7 breast = tested on: MCF7 breast

Row | SMILES | GI50 (SNB-19 CNS) [µM] | TGI (SNB-19 CNS) [µM] | GI50 (SK-MEL-28 melanoma) [µM] | TGI (SK-MEL-28 melanoma) [µM] | GI50 (ACHN renal) [µM] | TGI (ACHN renal) [µM] | GI50 (A498 renal) [µM] | TGI (A498 renal) | GI50 (SK-MEL-2 melanoma) [µM] | TGI (SK-MEL-2 melanoma) | GI50 (RXF 393 renal) [µM] | TGI (RXF 393 renal) | GI50 (SN12C renal) [µM] | TGI (SN12C renal) [µM] | GI50 (NCI-H226 lung) [µM] | TGI (NCI-H226 lung) [µM] | GI50 (DU-145 prostate) [µM] | TGI (DU-145 prostate) [µM] | GI50 (MCF7 breast) [µM] | TGI (MCF7 breast) [µM]
1 | Cn1cc(C2=C(c3cn(CCCN=C(N)N)c4ccccc34)C(=O)NC2=O)c2ccccc21 | > 25 | > 25 | > 25 | > 25 | > 25 | > 25 | > 25 | > 25 µM | > 18.4 | > 25 µM | > 20 | > 25 µM | > 19.8 | > 25 | > 25 | > 25 | > 25 | > 25 | > 25 | > 25
2 | Cc1cc(C2CCCCC2)n(O)c(=O)c1 | 2.37 | > 100 | 4.07 | > 100 | 1.06 | > 100 | 7 | > 100 µM and 46.7 µM | 10.5 | > 100 µM and 65.6 µM | 3.02 | > 100 µM and 97.2 µM | 1.45 | > 100 | 2.2 | > 100 | 2.04 | > 100 | 3.01 | > 100
3 | CN(C)C(=S)SN(C)C(=O)Nc1ccccc1 | – | > 100 | – | 53.6 | – | > 96.4 | – | > 33.8 µM | – | > 100 µM | – | 6.31 µM | – | 89.3 | – | > 92.4 | – | > 100 | – | > 47.1
4 | CCOC(=O)c1c(C)n(Cc2ccc(OC)cc2)c2c1cc(O)c1[nH]c3c(c12)CCCC3 | 4.84 | 65.2 | 10.7 | > 100 | 6.72 | 35.6 | 21.3 | 60.6 µM | 2.39 | 7.05 µM | 11.6 | 43.5 µM | 7.79 | 28.9 | 15.5 | 32.9 | 27.5 | > 100 | 4.97 | 19.8
5 | Nc1nccc(-c2c(-c3ccc(F)cc3)ncn2CCCN2CCOCC2)n1 | > 25 | > 25 | > 25 | > 25 | 19.4 | > 25 | > 19.2 | > 25 µM | > 25 | > 25 µM | > 17 | > 25 µM | > 25 | > 25 | > 25 | > 25 | > 25 | > 25 | > 21.6 | > 25
6 | NCCCCn1c2c(c3ccccc3c1=O)C(=O)c1ccccc1-2 | 0.389 | 12.2 | 0.671 | – | 0.0161 | 0.123 | 0.543 | 1.71 µM | 2.38 | > 42.4 µM | 0.644 | – | 0.0385 | 0.244 | 0.107 | 0.458 | 0.0131 | 0.498 | < 0.0359 | –
7 | C[C@]12CC[C@@H]3c4ccc(O)cc4C[C@@H](CCCCCCCCCS(=O)CCCC(F)(F)C(F)(F)F)[C@H]3[C@@H]1CC[C@@H]2O (stereo partly specified) | > 100 | > 100 | > 100 | > 100 | > 100 | > 100 | > 100 | > 100 µM | > 100 | > 100 µM | > 78.1 | > 100 µM | > 100 | > 100 | > 100 | > 100 | > 100 | > 100 | – | > 100
8 | O=c1[nH]c(=O)n(C2CC(O)C(CS)O2)cc1F (stereo unspecified) | – | > 100 | – | > 100 | – | > 92.4 | – | > 86.2 µM | – | > 100 µM | – | > 100 µM | – | > 100 | – | > 100 | – | > 100 | – | > 43.5
9 | C[C@]12CC[C@@H]3c4ccc(O)cc4CC[C@H]3[C@@H]1CC[C@@H]2NS(=O)(=O)c1ccc(C(F)(F)F)cc1 | 3.28 | 11.6 | 1.68 | 3.08 | 1.63 | 3.06 | 1.25 | 2.74 µM | 2.13 | 4 µM | 1.63 | 3.13 µM | 1.75 | 3.36 | 1.68 | 3.2 | 2.75 | 7.11 | 2.26 | 5
10 | CC12CCCC(CC(=O)c3[nH]c4ccccc4c31)C2 (stereo unspecified) | 1.48 | > 100 | 2.03 | > 100 | 0.856 | > 100 | 0.483 | 4 µM | 1.91 | > 59.1 µM | 0.629 | 4.88 µM | 1.91 | 20.3 | 4.23 | 33.3 | 2.04 | 24.3 | 0.4 | > 56.7
11 | COc1ccc(C(=O)/C=C/c2cccnc2Nc2cc(OC)c(OC)c(OC)c2)cc1 | 2.82 | 17.3 | 2.7 | 8.29 | 1.9 | 4.06 | 1.8 | 13.1 µM | 7.27 | 21 µM | 1.47 | 5.36 µM | 2.43 | 9.69 | 2.51 | 8.86 | 4.89 | 17.1 | 0.106 | 11
12 | CC(C)CSc1nc(Nc2ccccc2)c(C#N)c(-c2ccc(F)cc2)n1 | 2.45 | 13.2 | 12.2 | 35.5 | 0.403 | 1.47 | 1.19 | 6.13 µM | 13.7 | 30.2 µM | 1.75 | 6.18 µM | 0.597 | 3.14 | 3.79 | 20.1 | 11 | 27.7 | 22.8 | > 100

From PubChem BioAssay (NCI)
